Assay results from US8513271B2, “Pyrimidine compounds as delta opioid receptor modulators” (Janssen Pharmaceutica, NV, priority 2009, dated 2013).
Where two headings read alike, the source gives them in different places.

How the values were obtained:
delta opioid receptor [1] = biological target: T1, delta opioid receptor (Rattus norvegicus, UniProt P33533); test: Rat brain delta opioid receptor binding assay; conditions: rat forebrain
T1 construct: the forebrains were homogenized in Tris buffer in a Teflon®-glass homogenizer; from tissue; host or cells: forebrain of male Wistar rats, particulate (membrane) preparation
T1 sequence (P33533 whole entry): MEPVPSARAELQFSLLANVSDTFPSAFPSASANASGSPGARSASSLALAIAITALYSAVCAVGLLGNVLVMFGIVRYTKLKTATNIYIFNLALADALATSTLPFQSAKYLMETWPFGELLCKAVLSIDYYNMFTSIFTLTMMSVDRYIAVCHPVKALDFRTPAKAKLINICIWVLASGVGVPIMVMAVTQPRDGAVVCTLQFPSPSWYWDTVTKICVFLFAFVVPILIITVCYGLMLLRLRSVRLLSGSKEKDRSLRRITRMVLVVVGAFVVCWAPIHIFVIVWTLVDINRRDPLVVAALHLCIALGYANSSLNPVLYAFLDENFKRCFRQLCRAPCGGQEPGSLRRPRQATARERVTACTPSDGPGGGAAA

mu opioid receptor = biological target: T2, mu opioid receptor (Rattus norvegicus, UniProt P33535); test: Rat brain mu opioid receptor binding assay; conditions: rat forebrain, [3H]DAMGO ligand
T2 construct: the forebrains were homogenized in Tris buffer in a Teflon®-glass homogenizer; from tissue; host or cells: forebrain of male Wistar rats, particulate (membrane) preparation
T2 sequence (P33535 whole entry): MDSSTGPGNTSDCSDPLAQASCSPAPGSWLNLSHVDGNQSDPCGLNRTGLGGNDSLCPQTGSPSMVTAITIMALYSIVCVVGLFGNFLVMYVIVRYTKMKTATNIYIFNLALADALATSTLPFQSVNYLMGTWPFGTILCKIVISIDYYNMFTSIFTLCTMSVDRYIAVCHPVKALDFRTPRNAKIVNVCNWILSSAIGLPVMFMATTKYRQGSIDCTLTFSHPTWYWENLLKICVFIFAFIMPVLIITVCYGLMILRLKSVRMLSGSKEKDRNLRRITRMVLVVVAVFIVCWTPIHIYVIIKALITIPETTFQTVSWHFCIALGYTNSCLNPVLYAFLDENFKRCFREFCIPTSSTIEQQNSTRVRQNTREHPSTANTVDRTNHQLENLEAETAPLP

delta opioid receptor [2] = biological target: T3, delta opioid receptor (Mus musculus, UniProt P32300); test: [35S]GTPγS binding assay in NG108-15 cell membranes (delta opioid functional assay), 200 nM screen; type: biochemical; conditions: NG108-15 cell membranes; for EC50: averages if tested more than once; for GTPγS δ-opioid receptor Rel Efficacy: relative efficacy from dose response
T3 construct: NG108-15 cell membranes were purchased from Applied Cell Sciences (Rockville, Md.); host or cells: NG108-15 cell membranes
T3 sequence (P32300 whole entry): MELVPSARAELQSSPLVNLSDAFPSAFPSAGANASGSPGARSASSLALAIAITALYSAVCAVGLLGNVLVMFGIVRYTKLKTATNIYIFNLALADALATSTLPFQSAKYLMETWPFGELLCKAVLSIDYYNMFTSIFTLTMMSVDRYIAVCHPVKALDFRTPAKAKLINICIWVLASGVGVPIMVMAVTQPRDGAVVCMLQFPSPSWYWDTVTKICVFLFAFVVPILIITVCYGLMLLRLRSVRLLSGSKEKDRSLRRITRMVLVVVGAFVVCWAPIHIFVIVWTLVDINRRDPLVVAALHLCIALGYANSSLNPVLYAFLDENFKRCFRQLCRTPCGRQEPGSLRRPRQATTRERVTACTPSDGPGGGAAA

[3] = [3H]DPDPE ligand, read-out: δ-binding (DPDPE ligand) Ki
[4] = [3H]naltrindole ligand, read-out: δ-binding (Naltrindole ligand) Ki
[5] = δ-binding (Naltrindole ligand) Ki, [3H]naltrindole ligand
[6] = read-out: GTPγS δ-opioid receptor EC50

Structure (SMILES)	Ki (mu opioid receptor; read-out: μ-binding Ki)	Ki (delta opioid receptor [1]; [4])	Ki (delta opioid receptor [1]; [5])	further results
COc1ccc(Oc2nc(-c3ccc(OC)cc3)ncc2NC[C@@H]2CCCN2)cc1 [Cpd 1]	3230 nM			Ki (delta opioid receptor [1]; [3]): 363 nM
COc1ccc(Oc2nc(-c3cccc(OC)c3)ncc2NC[C@@H]2CCCN2)cc1 [Cpd 3]	2340 nM			Ki (delta opioid receptor [1]; [3]): 142 nM
COc1ccc(Oc2nc(-c3ccccc3OC)ncc2NC[C@@H]2CCCN2)cc1 [Cpd 4]	> 10000 nM			Ki (delta opioid receptor [1]; [3]): 2220 nM
COc1ccc(Oc2nc(-c3ccc4ccccc4c3)ncc2NC[C@@H]2CCCN2)cc1 [Cpd 6]	9010 nM	116 nM		
COc1ccc(Oc2nc(-c3ccsc3)ncc2NC[C@@H]2CCCN2)cc1 [Cpd 9]	2970 nM	1 nM		
COc1ccc(Oc2nc(-c3ccoc3)ncc2NC[C@@H]2CCCN2)cc1 [Cpd 10]	2000 nM		34 nM	
FC(F)(F)Oc1ccc(Oc2nc(-c3cccnc3)ncc2NC[C@@H]2CCCN2)cc1 [Cpd 11]	3080 nM		5 nM	
NC(=O)c1ccc(Oc2nc(-c3cccnc3)ncc2NC[C@@H]2CCCN2)cc1 [Cpd 12]	4520 nM		18 nM	
CC(=O)Nc1ccc(Oc2nc(-c3cccnc3)ncc2NC[C@@H]2CCCN2)cc1 [Cpd 13]	5570 nM	2 nM		
c1ccc(Oc2nc(-c3cccnc3)ncc2NC[C@@H]2CCCN2)cc1 [Cpd 14]	1730 nM		1 nM	
COc1ccc(Oc2nc(-c3cccc(O)c3)ncc2NC[C@@H]2CCCN2)cc1 [Cpd 15]	416 nM		0.1 nM	
COc1ccc(Oc2nc(-c3cccc4ncccc34)ncc2NC[C@@H]2CCCN2)cc1 [Cpd 16]	1320 nM		14 nM	
COc1ccc(Oc2nc(-c3cccc4cccnc34)ncc2NC[C@@H]2CCCN2)cc1 [Cpd 17]	3080 nM		30 nM	
COc1ccc(Oc2nc(-c3cccc4nc(C)ccc34)ncc2NC[C@@H]2CCCN2)cc1 [Cpd 18]	2240 nM	172 nM		
COc1ccc(Oc2nc(-c3ccc(-c4ccccc4)cc3)ncc2NC[C@@H]2CCCN2)cc1 [Cpd 19]	8080 nM	201 nM		
COc1ccc(Oc2nc(-c3ccc4sc5ccccc5c4c3)ncc2NC[C@@H]2CCCN2)cc1 [Cpd 21]	2390 nM	201 nM		
COc1ccc(Oc2nc(-c3cnc(O)nc3O)ncc2NC[C@@H]2CCCN2)cc1 [Cpd 27]	15500 nM	2570 nM		
COc1ccc(Oc2nc(-c3cccc(C#N)c3)ncc2NC[C@@H]2CCCN2)cc1 [Cpd 28]	295 nM		6.1 nM	
COc1ccc(Oc2nc(-c3cccc([N+](=O)[O-])c3)ncc2NC[C@@H]2CCCN2)cc1 [Cpd 29]	2660 nM		86 nM	
COc1ccc(Oc2nc(-c3cccc(C(N)=O)c3)ncc2NC[C@@H]2CCCN2)cc1 [Cpd 30]	1090 nM		3 nM	
CCN(CC)C(=O)c1cccc(-c2ncc(NC[C@@H]3CCCN3)c(Oc3ccc(OC)cc3)n2)c1 [Cpd 31]	837 nM		31 nM	
COc1ccc(Oc2nc(-c3cccc(S(C)(=O)=O)c3)ncc2NC[C@@H]2CCCN2)cc1 [Cpd 32]			12.6 nM	Ki (mu opioid receptor; μ-binding Ki): 64.1 nM
COc1ccc(Oc2nc(-c3ccc(O)cc3)ncc2NC[C@@H]2CCCN2)cc1 [Cpd 33]			29 nM	Ki (mu opioid receptor; μ-binding Ki): 29 nM
COc1ccc(Oc2nc(-c3ccc4[nH]ccc4c3)ncc2NC[C@@H]2CCCN2)cc1 [Cpd 34]			15 nM	Ki (mu opioid receptor; μ-binding Ki): 15 nM
COc1ccc(Oc2nc(-c3noc(=O)[nH]3)ncc2NC[C@@H]2CCCN2)cc1 [Cpd 35, 3-{4-(4-Methoxy-phenoxy)-5-[(pyrrolidin-2-(S)-ylmethyl)-amino]-pyrimidin-2-yl}-4H-[1,2,4]oxadiazol-5-one]	184 nM	184 nM		
Fc1ccc(Oc2nc(-c3cccnc3)ncc2NC[C@@H]2CCCN2)cc1 [Cpd 36]	4770 nM		3 nM	
COc1ccc(-c2ncc(NC[C@@H]3CCCN3)c(Oc3ccc(F)cc3)n2)cn1 [Cpd 37]	> 10000 nM		10 nM	
COc1ccc(Oc2nc(-c3cccc(F)c3)ncc2NC[C@@H]2CCCN2)cc1 [Cpd 38]	4910 nM		1 nM	

Structure (SMILES)	Ki (mu opioid receptor; read-out: μ-binding Ki)	Ki (delta opioid receptor [1]; [4])	Ki (delta opioid receptor [1]; [5])	further results
COc1ccc(-c2ncc(NC[C@@H]3CCCN3)c(Oc3ccccc3OC)n2)cn1 [Cpd 39]	8990 nM		67 nM	
COc1ccccc1Oc1nc(-c2cccnc2)ncc1NC[C@@H]1CCCN1 [Cpd 40]	7640 nM		93 nM	
COc1ccc(Oc2nc(-c3cccc(NC(C)=O)c3)ncc2NC[C@@H]2CCCN2)cc1 [Cpd 42]	1230 nM		16 nM	
COc1ccc(Oc2nc(-c3ccc(NC(C)=O)cc3)ncc2NC[C@@H]2CCCN2)cc1 [Cpd 43]	523 nM		4 nM	
COc1ccc(-c2ncc(NC[C@@H]3CCCN3)c(Oc3ccc(N)cc3)n2)cn1 [Cpd 44]	2690 nM	4 nM		
COc1ccc(Oc2nc(-c3cccc(N)c3)ncc2NC[C@@H]2CCCN2)cc1 [Cpd 45]	812 nM	11 nM		
Nc1ccc(Oc2nc(-c3cccnc3)ncc2NC[C@@H]2CCCN2)cc1 [Cpd 46]	3550 nM		27 nM	
COc1ccc(Oc2nc(-c3nc4ccccc4s3)ncc2NC[C@@H]2CCCN2)cc1 [Cpd 47]	1130 nM		6 nM	
COc1ccc(Oc2nc(-c3nccs3)ncc2NC[C@@H]2CCCN2)cc1 [Cpd 48]	862 nM		24 nM	
COc1ccc(Oc2nc(-c3cc4ccccc4s3)ncc2NC[C@@H]2CCCN2)cc1 [Cpd 49]	3560 nM	103 nM		
COc1ccc(Oc2nc(-c3cccc(C(F)(F)F)c3)ncc2NC[C@@H]2CCCN2)cc1 [Cpd 50]	597 nM		55 nM	
COc1ccc(Oc2nc(-c3cccc(OC(F)(F)F)c3)ncc2NC[C@@H]2CCCN2)cc1 [Cpd 51]	1030 nM		22 nM	
COc1ccc(Oc2nc(-c3cnc(SC)nc3)ncc2NC[C@@H]2CCCN2)cc1 [Cpd 52]	539 nM		0.4 nM	
COc1ccc(Oc2nc(-c3cnc(OC)nc3)ncc2NC[C@@H]2CCCN2)cc1 [Cpd 53]	591 nM		0.2 nM	
COc1ccc(Oc2nc(-c3cc(F)cc(F)c3)ncc2NC[C@@H]2CCCN2)cc1 [Cpd 55]	2050 nM		21 nM	
COc1ccc(Oc2nc(-c3ccn[nH]3)ncc2NC[C@@H]2CCCN2)cc1 [Cpd 61]	3990 nM	259 nM		
COc1ccc(Oc2nc(-c3c(C)noc3C)ncc2NC[C@@H]2CCCN2)cc1 [Cpd 62]	1920 nM	544 nM		
COc1ccc(Oc2nc(-c3cc(F)cc(OC)c3)ncc2NC[C@@H]2CCCN2)cc1 [Cpd 70]	2250 nM		47 nM	
Oc1ccc(Oc2nc(-c3ccc(O)nc3)ncc2NCC2CCCN2)cc1 (stereo not drawn) [Cpd 75]	5120 nM		36 nM	
COc1ccc(Oc2nc(-c3ccc4nccnc4c3)ncc2NC[C@@H]2CCCN2)cc1 [Cpd 76]	333 nM	111 nM		
COc1ccc(Oc2nc(-c3cnc4[nH]ccc4c3)ncc2NC[C@@H]2CCCN2)cc1 [Cpd 77]	313 nM	154 nM		
COc1ccc(Oc2nc(-c3cncnc3)ncc2NCC2CNCCO2)cc1 (stereo not drawn) [Cpd 277]		32 nM		EC50 (delta opioid receptor [2]; [6]): 1.09 µM; GTPγS δ-opioid receptor Rel Efficacy (delta opioid receptor [2]): 1.012
COc1ccc(Oc2nc(-c3cncc(C#N)c3)ncc2NC[C@H]2COCCN2)cc1 [Cpd 280]		6 nM		EC50 (delta opioid receptor [2]; [6]): 0.181 µM; GTPγS δ-opioid receptor Rel Efficacy (delta opioid receptor [2]): 0.998
COc1ccc(Oc2nc(-c3cncc(C#N)c3)ncc2NC[C@H](C)N)cc1 [Cpd 292]			2 nM	EC50 (delta opioid receptor [2]; [6]): 0.363 µM
COc1ccc(Oc2nc(-c3cncc(C#N)c3)ncc2NCCN)cc1 [Cpd 293]			8 nM	EC50 (delta opioid receptor [2]; [6]): 0.317 µM
COc1ccc(Oc2nc(-c3cncc(C#N)c3)ncc2NC2CCC(N)CC2)cc1 (stereo not drawn) [Cpd 298]			4 nM	EC50 (delta opioid receptor [2]; GTPγS δ-opioid receptor EC50 (μM)): 0.087 µM; GTPγS δ-opioid receptor Rel Efficacy (delta opioid receptor [2]): 1.012
COc1ccc(Oc2nc(-c3cncnc3)ncc2NC[C@H]2CCCC[C@@H]2N)cc1 [Cpd 300]		21 nM		EC50 (delta opioid receptor [2]; [6]): 1.05 µM; GTPγS δ-opioid receptor Rel Efficacy (delta opioid receptor [2]): 0.968
